# Source: PMC8773473, “Lithocholic Acid Amides as Potent Vitamin D Receptor Agonists” (Biomolecules, 2022)
# Where two headings read alike, the source gives them in different places.
# T1: VDR (Homo sapiens, UniProt P11473)
# T1 construct: expressed in transfected cells; host or cells: HEK293
# T1 sequence (P11473 1-427): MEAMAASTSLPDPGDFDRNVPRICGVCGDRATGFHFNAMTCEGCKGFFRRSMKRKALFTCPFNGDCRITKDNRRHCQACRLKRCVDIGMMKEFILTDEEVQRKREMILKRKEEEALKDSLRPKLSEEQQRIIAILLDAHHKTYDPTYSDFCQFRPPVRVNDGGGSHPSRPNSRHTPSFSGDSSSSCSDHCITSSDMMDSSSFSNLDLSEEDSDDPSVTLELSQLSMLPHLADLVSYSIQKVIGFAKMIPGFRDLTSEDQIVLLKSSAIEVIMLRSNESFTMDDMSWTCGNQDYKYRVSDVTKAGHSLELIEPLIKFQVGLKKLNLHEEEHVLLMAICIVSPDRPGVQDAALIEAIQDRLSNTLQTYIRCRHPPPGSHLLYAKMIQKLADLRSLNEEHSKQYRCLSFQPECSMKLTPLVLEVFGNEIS
# T2: rat VDR LBD (residues 116–423, Δ165–211) (rat, UniProt P13053 116-423, Δ165–211)
# T2 construct: Cloned in pET14b; tag removed by thrombin digestion; also called rVDR LBD; source: Escherichia coli C41, purified (Ni-NTA, SP-Sepharose, thrombin digestion, gel filtration); not shown: His6, N-terminal, cleaved
# T2 sequence (looked up): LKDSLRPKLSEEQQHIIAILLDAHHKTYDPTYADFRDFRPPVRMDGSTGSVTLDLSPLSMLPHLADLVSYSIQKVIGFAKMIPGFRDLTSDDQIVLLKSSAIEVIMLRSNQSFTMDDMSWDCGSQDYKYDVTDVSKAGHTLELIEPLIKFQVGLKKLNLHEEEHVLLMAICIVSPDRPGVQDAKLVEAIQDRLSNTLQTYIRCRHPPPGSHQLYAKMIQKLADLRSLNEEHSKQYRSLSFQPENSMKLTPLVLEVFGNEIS
# How the values were obtained:
# HL-60 cells = test: HL-60 cell differentiation-inducing assay (NBT reduction); format: cell-based, human; details: for EC50: Homo sapiens, HL-60, 96 h, read-out: HL-60 Assay EC50
# Procedure: The vitamin D activity of the synthesized lithocholic acid amide derivatives was evaluated in terms of cell differentiation-inducing activity toward human acute promyelocytic leukemia cell line HL-60 [12]. HL-60 cell differentiation was evaluated in terms of the ratio of nitroblue tetrazolium (NBT)-positive cells (Figure 3 and Table 1).
# Control cells were treated with the same volume of ethanol alone. 1α,25(OH)2D3 was always assayed at the same time as a positive control. The cells were incubated at 37 °C under 5% CO2 in air for 4 days. The percentage of differentiated cells was determined by nitro-blue tetrazolium (NBT) reduction assay. […] The percentage of cells containing blue-black formazan was determined in a minimum of 200 cells. All experiments were done in triplicate.
# VDR = molecular target: T1, VDR; test: VDR transactivation assay (luciferase reporter) in HEK293 cells; format: cell-based
# Procedure: Human embryonic kidney HEK293 cells (RIKEN Cell Bank, Tsukuba, Japan) were cultured in Dulbecco’s modified Eagle’s medium containing 5% FBS, 100 U/mL penicillin, and 0.1 mg/mL streptomycin (Nacalai Tesque, Kyoto, Japan). Transfections used 15 ng of pCMX-hVDR, 50 ng of TK-Spp × 3-LUC reporter plasmid, and 10 ng of pCMX-β-galactosidase for each well of a 96-well plate, and were performed by the calcium phosphate coprecipitation assay as described previously. Eight hours after transfection, test compounds were added. Cells were harvested after 16–24 h and were assayed for luciferase and β-galactosidase activity using a luminometer and a microplate reader (Molecular Devices, Sunnyvale, CA, USA). Luciferase data were normalized to the internal β-galactosidase control. All experiments were done in triplicate.
# [1] = preliminary pharmacokinetics in mice (data not shown); format: in vivo; details: preliminary results
# [2] = parameters: method as in PMID 33853023; details: cited from earlier work
# [3] = molecular target: T2, rat VDR LBD (residues 116–423, Δ165–211); test: crystal structure; VDR LBD with about 10 equiv of ligand 7b and coactivator peptide (25 mM Tris-HCl, pH 8.0; 50 mM NaCl; 10 mM DTT; 0.02% NaN3); vapor diffusion, 0.2 M potassium citrate tribasic monohydrate, 20% (w/v) PEG3350, 20 °C; 1.94 Å; details: both partners purified
# [4] = ratio of NBT-positive cells, 4 days incubation, 'Inactive' = no or week active at the concentrations below 1 μM
# [5] = HEK293 cells transfected with pCMX-hVDR and TK-Spp×3-LUC reporter, 'Inactive' = no or week active at the concentrations below 1 μM
Molecule,EC50 (HL-60 cells; [4]),EC50 (VDR; [5]),further results
C[C@H](CCC(=O)NCCS(=O)(=O)O)[C@H]1CC[C@H]2[C@@H]3CC[C@@H]4C[C@H](CC(C)(C)O)CC[C@]4(C)[C@H]3CC[C@]12C [Compound 8b],6.56 nM,,
C[C@H](CCC(=O)NCCCC(=O)O)[C@H]1CC[C@H]2[C@@H]3CC[C@@H]4C[C@H](CC(C)(C)O)CC[C@]4(C)[C@H]3CC[C@]12C [Compound 7c],0.64 nM,0.081 nM,
CONC(=O)CC[C@@H](C)[C@H]1CC[C@H]2[C@@H]3CC[C@@H]4C[C@H](CC(C)(C)O)CC[C@]4(C)[C@H]3CC[C@]12C [Compound 5b],1.45 nM,0.14 nM,
C[C@H](CCC(=O)NCC(=O)O)[C@H]1CC[C@H]2[C@@H]3CC[C@@H]4C[C@H](CC(C)(C)O)CC[C@]4(C)[C@H]3CC[C@]12C [Compound 7a],2.03 nM,,
C[C@H](CCC(=O)NC#N)[C@H]1CC[C@H]2[C@@H]3CC[C@@H]4C[C@H](CC(C)(C)O)CC[C@]4(C)[C@H]3CC[C@]12C [Compound 6],0.32 nM,0.1 nM,
CNC(=O)CC[C@@H](C)[C@H]1CC[C@H]2[C@@H]3CC[C@@H]4C[C@H](CC(C)(C)O)CC[C@]4(C)[C@H]3CC[C@]12C [Compound 4b],,0.96 nM,HL-60 Assay EC50 (HL-60 cells; [4]): Inactive ^a
C[C@H](CCC(=O)O)[C@H]1CC[C@H]2[C@@H]3CC[C@@H]4C[C@H](CC(C)(C)O)CC[C@]4(C)[C@H]3CC[C@]12C [Compound 3],1.01 nM,0.083 nM,"elimination from the serum [1]: eliminated very quickly; calcemic activity compared with 1α,25(OH)2D3 (1) [2]: lower calcemic activity than 1; calcemic activity compared with 1α,25(OH)2D3 (1) ([2]; listed as 3 (Dcha-20)): lower calcemic activity"
"C[C@H](CCC(=O)O)[C@H]1CC[C@H]2[C@@H]3CC[C@@H]4C[C@H](O)CC[C@]4(C)[C@H]3CC[C@]12C [LCA (2), Lithocholic acid]",,,"HL-60 Assay EC50 (HL-60 cells; [4]): Inactive ^a; Transactivation Assay EC50 (VDR; [5]): Inactive ^a; VDR transactivation activity (in words) (VDR; HEK293 cells, LCA: at the concentration below 1 μM): did not show the activity"
"C=C1/C(=C\C=C2/CCC[C@]3(C)[C@@H]([C@H](C)CCCC(C)(C)O)CC[C@@H]23)C[C@@H](O)C[C@@H]1O [1α,25(OH)2D3 (1), 1α,25-Dihydroxyvitamin D3, reference compound]",,,EC50 (HL-60 cells): 0.74 nM
C[C@H](CCC(N)=O)[C@H]1CC[C@H]2[C@@H]3CC[C@@H]4C[C@H](CC(C)(C)O)CC[C@]4(C)[C@H]3CC[C@]12C [Compound 4a],0.44 nM,0.12 nM,
C[C@H](CCC(=O)NO)[C@H]1CC[C@H]2[C@@H]3CC[C@@H]4C[C@H](CC(C)(C)O)CC[C@]4(C)[C@H]3CC[C@]12C [Compound 5a],1.18 nM,0.14 nM,
C[C@H](CCC(=O)NCCC(=O)O)[C@H]1CC[C@H]2[C@@H]3CC[C@@H]4C[C@H](CC(C)(C)O)CC[C@]4(C)[C@H]3CC[C@]12C [Compound 7b],0.45 nM,0.89 nM,
C[C@H](CCC(=O)NCS(=O)(=O)O)[C@H]1CC[C@H]2[C@@H]3CC[C@@H]4C[C@H](CC(C)(C)O)CC[C@]4(C)[C@H]3CC[C@]12C [Compound 8a],18.5 nM,,
H-KNHPMLMNLLKDN-NH2 (also called MED1 peptide; source: synthetic peptide) [coactivator peptide (H2N-KNHPMLMNLLKDN-CONH2) derived from DRIP205],,,binding result [3]: binds
